Here are results for 14 compounds from US20060135480A1, “Derivatives of succinic and glutaric acids and analogs thereof useful as inhibitors of phex” (Enobia Pharma, priority 2002, published 2006).

SMILES strings stand for the structures.

In this assay the target is T1, sPHEX (Homo sapiens, UniProt P78562).
T1 construct: The soluble form of the metallopeptidase PHEX (sPHEX) was purified to homogeneity; made in house
T1 sequence (P78562 53-749 limits assumed): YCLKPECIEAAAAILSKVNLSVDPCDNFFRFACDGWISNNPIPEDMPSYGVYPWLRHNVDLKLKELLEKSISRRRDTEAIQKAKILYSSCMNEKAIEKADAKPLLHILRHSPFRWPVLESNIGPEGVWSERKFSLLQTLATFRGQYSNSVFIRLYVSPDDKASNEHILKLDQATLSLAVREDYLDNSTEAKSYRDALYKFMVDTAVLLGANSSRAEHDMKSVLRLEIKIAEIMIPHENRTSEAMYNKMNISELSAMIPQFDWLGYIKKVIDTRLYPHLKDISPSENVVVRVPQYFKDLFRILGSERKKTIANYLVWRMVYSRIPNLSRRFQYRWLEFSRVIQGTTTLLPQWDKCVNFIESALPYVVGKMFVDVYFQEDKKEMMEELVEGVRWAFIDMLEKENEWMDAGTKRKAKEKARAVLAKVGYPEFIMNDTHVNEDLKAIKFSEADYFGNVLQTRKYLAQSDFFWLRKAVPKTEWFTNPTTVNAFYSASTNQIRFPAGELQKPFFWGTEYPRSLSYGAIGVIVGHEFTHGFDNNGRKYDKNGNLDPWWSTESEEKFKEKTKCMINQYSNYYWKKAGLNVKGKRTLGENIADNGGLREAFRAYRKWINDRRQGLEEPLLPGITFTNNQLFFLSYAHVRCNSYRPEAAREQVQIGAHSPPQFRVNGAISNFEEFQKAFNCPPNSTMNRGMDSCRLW
The assay can be described thus: sPHEX inhibitor IC50 determination using a fluorogenic substrate (Abz-GFSDYK-Dnp, S3). The format is biochemical. As to conditions: fluorogenic substrate 20 μM, 100 ng sPHEX, pH 6.5. On the procedure:
The soluble form of the metallopeptidase PHEX (sPHEX) was purified to homogeneity according to the methods of Boileau and Crine (WO 00/50580). sPHEX quantity was measured with the Bradford assay (BioRad) using BSA as a standard.
sPHEX activity was determined using a fluorogenic substrate in which an increase of fluorescence was proportional to substrate conversion to products.
S3 was synthesized at Dr. Gilles Lajoie's laboratories (University of Western Ontario, Canada) by standard solid phase peptide synthesis. The fluorescent reaction product was excited at 320 nm to fluoresce at 420 nm. Fluorescence was recorded at 420 nm every five minutes over a one-hour period on a fluorescence plate reader (Perkin-Elmer, HTS-7000) to calculate the initial rate of the reaction. Typically, the reaction was carried out in 200 μl of buffer M (50 mM Mes(NaOH) pH 6.5, 150 mM NaCl) containing 100 ng of purified sPHEX and 20 μM of fluorigenic substrate to initiate the reaction. Enzymatic activity was determined by subtracting either the initial rate of substrate in buffer (solvolysis), or the typical reaction rate in which 5 mM EDTA was added prior to initiating the reaction.
sPHEX inhibitor IC50 determinations were done using the tested inhibitor at various concentrations coming from a serial dilution (usually ranging from 10^−3 M to 10^−12 M) in the reaction described above. IC50 values were calculated using the iterative four parameters non-linear regression formula from the GraphPad™ software (Prism).
Take `O=C(O)C[C@H](NC(=O)[C@@H](S)Cc1ccccc1)C(=O)N[C@@H](Cc1c[nH]c2ccccc12)C(=O)N[C@@H](CO)C(=O)O` [Example 116, N-[1-(1-Carboxy-2-hydroxy-ethylcarbamoyl)-2-(1H-indol-3-yl)-ethyl]-3-(2-mercapto-3-phenyl-propionylamino)-succinamic acid]: the IC50 – broadly, the concentration that inhibits the measured activity by half – turned out to be 4 nM.
For the compound `COC(=O)[C@H](Cc1c[nH]c2ccccc12)NC(=O)[C@H](CC(=O)O)NC(=O)CS` [Example 117, N-[2-(1H-indol-3-yl)-methoxycarbonyl-etjyl]-3-(2-mercapto-acetylamino)-succinamic acid], the IC50 was 2600 nM.
For `O=C(O)C[C@H](NC(=O)[C@@H](S)Cc1ccccc1)C(=O)NCCc1c[nH]c2ccccc12` [Example 118, N-[2-(1H-indol-3-yl)l-ethyl]-3-(2-mercapto-3-phenyl-propionylamino)-succinamic acid], the IC50 was 140 nM.
In the case of `N#Cc1ccc(-c2ccc(CCNC(=O)C(CC(=O)O)CC(=O)NO)cc2)cc1` (centres unmarked) [Example 130, 3-[2-(4′-Cyano-biphenyl-4-yl)-ethylcarbamoyl]-4-hydroxycarbamoyl-butyric acid] it was 190 nM; in that of `O=C(O)CC(CC(=O)NO)C(=O)NCCc1ccc(-c2ccccn2)cc1` (centres unmarked) [Example 132, 4-Hydroxycarbamoyl-3-[2-(4-pyridin-2-yl-phenyl)-ethylcarbamoyl]-butyric acid], 240 nM.
Compound `O=C(O)CC(CC(=O)NO)C(=O)NCCCCc1ccccc1` (centres unmarked) [Example 134, 4-Hydroxycarbamoyl-3-(4-phenyl-butylcarbamoyl)-butyric acid] returned an IC50 of 560 nM.
Under `O=C(O)CC(CC(=O)NO)C(=O)NCCOc1ccccc1` (centres unmarked) [Example 138, 4-Hydroxycarbamoyl-3-(2-phenoxy-ethylcarbamoyl)-butyric acid] stands 860 nM; under `O=C(O)CC(CC(=O)NO)C(=O)NCCc1ccc(-c2ccc(O)cc2)cc1` (centres unmarked) [Example 140, 3-[2-(4′-Hydroxy-biphenyl-4-yl)-ethylcarbamoyl]4-hydroxycarbamoyl-butyric acid], 360 nM.
With `O=C(O)CC(CC(=O)NO)C(=O)NCC(c1ccccc1)c1ccccc1` (centres unmarked) [Example 142, 3-(2,2-Diphenyl-ethylcarbamoyl)-4-hydroxycarbamoyl-butyric acid], the 50% inhibitory concentration (IC50) turned out to be 54 nM.
In the case of `O=C(O)CC(CC(=O)NO)C(=O)NCCCCCO` (centres unmarked) [Example 148, 4-Hydroxycarbamoyl-3-(5-hydroxy-pentylcarbamoyl)-butyric acid] it was 1700 nM; in that of `O=C(O)CC(CC(=O)NO)C(=O)NCc1ccc(-c2ccccc2)cc1` (centres unmarked) [Example 150, 3-[(Biphenyl-4-ylmethyl)-carbamoyl]-4-hydroxycarbamoyl-butyric acid], 270 nM.
In the case of `O=C(O)CC(CCC(=O)NO)C(=O)NCCc1ccc(-c2ccccc2)cc1` (centres unmarked) [Example 152, 3-(2-Biphenyl-4-yl-ethylcarbamoyl)-5-hydroxycarbamoyl-pentanoic acid] it was 1300 nM.
Under `O=C(O)C[C@H](NC(CCc1ccccc1)P(=O)(O)O)C(=O)N[C@@H](Cc1c[nH]c2ccccc12)C(=O)O` (some centres unmarked) [Example 162, N-[1-carboxy-2-(1H-indol-3-yl)-ethyl]-3-(3-phenyl-1-phosphono-propylamino)-succinic acid] stands 9700 nM; under `O=C(O)CC(CC(=O)O)C(=O)NCCc1ccc2ccccc2c1` [Example 169, 3-(2-Naphthalen-2-yl-ethylcarbamoyl)-pentanedioic acid], 19000 nM.
